According to paper PMC12278645, “Design, synthesis, and antitumor activity of novel thioheterocyclic nucleoside derivatives by suppressing the c-MYC pathway” (Acta Pharmaceutica Sinica. B, 2025):

What follows are compounds tested on HCT116 cells (assay: CCK-8 anti-proliferation assay, HCT116). Conditions: CCK-8, 48 h, mean ± SD, three independent experiments.
Type: cell-based, human
Protocol: (§1) Tumor cell anti-proliferation activities were determined by cell counting kit-8 (CCK-8) assay.
(§2) MCF-7, A375, and HeLa cells were cultured in DMEM, HCT116 cells were cultured in McCoy's 5A medium, and DU145 and CT26 were cultured in RPMI 1640 with 10% FBS, 1% penicillin-streptomycin solution (10,000 U/mL penicillin and 10,000 μg/mL streptomycin) at 37 °C under 5% CO2. The cells were seeded in 96-well plates (4 × 10^3 cells/well) overnight and then treated with various concentrations (1–50 μmol/L) of the compound. After 48 h, the cell viability was measured by CCK-8 assay. The absorbance of each well was measured using a microplate reader (Multiskan FC, Thermo Fisher Scientific, Massachusetts, USA) at 450 nm wavelength. Assays were performed in triplicate. Compound concentrations that inhibited cell growth by 50% (IC50) were calculated from the dose–response curves of each cell line. Data are mean ± SD values from three independent experiments.

SMILES	IC50
CCOC(=O)C1(n2cnc3c(N4CCCCCC4)ncnc32)CSCC1O (single isomer, unassigned) [19a]	1.19 ± 0.09 µM
CCOC(=O)C1(n2cnc3c(N4CCCCC4)nc(N)nc32)CSCC1O (single isomer, unassigned) [32a]	0.72 ± 0.08 µM
CCOC(=O)C1(n2cnc3c(N4CCC(Cc5ccccc5F)CC4)ncnc32)CSCC1O (single isomer, unassigned) [17a]	4.4 ± 1.02 µM

Same assay, conditions: Homo sapiens, HCT-116, 48 h, CCK-8, 48 h, mean ± SD, three independent experiments

IC50	SMILES
4.85 ± 1.02 µM	CCOC(=O)[C@]1(n2cnc3c(SC(C)C)ncnc32)CSC[C@H]1O (relative stereo) [23a]
2.84 ± 0.27 µM	CCCCSc1ncnc2c1ncn2[C@@]1(C(=O)OCC)CSC[C@@H]1O (relative stereo) [25b]
1.81 ± 0.12 µM	C#CCSc1ncnc2c1ncn2[C@@]1(C(=O)OCC)CSC[C@H]1O (relative stereo) [24a]
1.66 ± 0.13 µM	C#CCSc1ncnc2c1ncn2[C@@]1(C(=O)OCC)CSC[C@@H]1O (relative stereo) [24b]
11.8 ± 1.27 µM	CCCCCSc1ncnc2c1ncn2[C@@]1(C(=O)OCC)CSC[C@@H]1O (relative stereo) [26b]
12.8 ± 1.08 µM	CCOC(=O)[C@]1(n2cnc3c(Sc4cccc(F)c4)ncnc32)CSC[C@H]1O (relative stereo) [28a]
19.1 ± 1.37 µM	CCOC(=O)[C@]1(n2cnc3c(SCCCF)ncnc32)CSC[C@H]1O (relative stereo) [30a]
> 50 µM	CCOC(=O)[C@]1(n2cnc3c(SCCCCl)ncnc32)CSC[C@@H]1O (relative stereo) [31b]
32.7 ± 1.17 µM	CCOC(=O)[C@]1(n2cnc3c(SC)ncnc32)CSC[C@@H]1O (relative stereo) [21b]
6.78 ± 1.22 µM	CCOC(=O)[C@]1(n2cnc3c(Sc4ccc(C(C)(C)C)cc4)ncnc32)CSC[C@@H]1O (relative stereo) [29b]
11.9 ± 1.32 µM	CCCCCSc1ncnc2c1ncn2[C@@]1(C(=O)OCC)CSC[C@H]1O (relative stereo) [26a]
2.42 ± 0.82 µM	CCOC(=O)[C@]1(n2cnc3c(SCC)ncnc32)CSC[C@@H]1O (relative stereo) [22b]
9.07 ± 0.49 µM	CCCCSc1ncnc2c1ncn2[C@@]1(C(=O)OCC)CSC[C@H]1O (relative stereo) [25a]
0.37 ± 0.08 µM	CCCSc1nc(F)nc2c1ncn2[C@]1(C(=O)OCC)CSC[C@H]1O [36bb]
10.9 ± 1.01 µM	CCOC(=O)[C@]1(n2cnc3c(SCCCF)ncnc32)CSC[C@@H]1O (relative stereo) [30b]
5.65 ± 1.4 µM	CCOC(=O)[C@]1(n2cnc3c(SCc4ccccc4)ncnc32)CSC[C@@H]1O (relative stereo) [27b]
44.1 ± 1.36 µM	CCOC(=O)[C@]1(n2cnc3c(SC)ncnc32)CSC[C@H]1O (relative stereo) [21a]
15.7 ± 2 µM	CCOC(=O)[C@]1(n2cnc3c(Sc4cccc(F)c4)ncnc32)CSC[C@@H]1O (relative stereo) [28b]
7.6 ± 1.22 µM	CCOC(=O)[C@]1(n2cnc3c(Sc4ccc(C(C)(C)C)cc4)ncnc32)CSC[C@H]1O (relative stereo) [29a]
> 50 µM	CCOC(=O)[C@]1(n2cnc3c(SCCCCl)ncnc32)CSC[C@H]1O (relative stereo) [31a]

SMILES	IC50
CCOC(=O)[C@]1(n2cnc3c(N4CCCCC4)nc(F)nc32)CSC[C@H]1O [33aa]	0.58 ± 0.17 µM

Same assay, conditions: Table S3, CCK-8, mean ± SD

IC50	SMILES
2.01 ± 0.24 µM	CCOC(=O)C1(n2cnc3c(Cl)nc(F)nc32)CSCC1O (single isomer, unassigned) [39b]
10.6 ± 1.02 µM	CCOC(=O)C1(n2cnc3c(Cl)nc(N)nc32)CSCC1O (single isomer, unassigned) [38b]
5.37 ± 1.02 µM	CCOC(=O)C1(n2cnc3c(Cl)nc(Cl)nc32)CSCC1O (single isomer, unassigned) [40a]
2.13 ± 0.46 µM	CCOC(=O)C1(n2cnc3c(Cl)nc(Cl)nc32)CSCC1O (single isomer, unassigned) [40b]
24.2 ± 1.32 µM	CCOC(=O)C1(n2cnc3c(N4CCOCC4)nc(Cl)nc32)CSCC1O (single isomer, unassigned) [42a]
> 50 µM	CCOC(=O)C1(n2cnc3cnc(Cl)nc32)CSCC1O (stereo not drawn) [41a]

The compounds below were run on HeLa cells (assay: CCK-8 anti-proliferation assay, HeLa). Conditions: CCK-8, 48 h, mean ± SD, three independent experiments.
Type: cell-based, human
Protocol: as §1, §2

SMILES	IC50
CCOC(=O)C1(n2cnc3c(N4CCCCCC4)ncnc32)CSCC1O (single isomer, unassigned) [19a]	22.8 ± 1.22 µM
CCOC(=O)C1(n2cnc3c(N4CCCCC4)nc(N)nc32)CSCC1O (single isomer, unassigned) [32a]	5.35 ± 1.05 µM
CCOC(=O)C1(n2cnc3c(N4CCC(Cc5ccccc5F)CC4)ncnc32)CSCC1O (single isomer, unassigned) [17a]	17 ± 1.03 µM

Same assay, conditions: Homo sapiens, HeLa, 48 h, CCK-8, 48 h, mean ± SD, three independent experiments

IC50	SMILES
8.45 ± 1.23 µM	CCOC(=O)[C@]1(n2cnc3c(SC(C)C)ncnc32)CSC[C@H]1O (relative stereo) [23a]
6.32 ± 0.82 µM	CCCCSc1ncnc2c1ncn2[C@@]1(C(=O)OCC)CSC[C@@H]1O (relative stereo) [25b]
15.9 ± 2.12 µM	C#CCSc1ncnc2c1ncn2[C@@]1(C(=O)OCC)CSC[C@H]1O (relative stereo) [24a]
14.9 ± 2.01 µM	C#CCSc1ncnc2c1ncn2[C@@]1(C(=O)OCC)CSC[C@@H]1O (relative stereo) [24b]
> 50 µM	CCCCCSc1ncnc2c1ncn2[C@@]1(C(=O)OCC)CSC[C@@H]1O (relative stereo) [26b]
9.47 ± 1.02 µM	CCOC(=O)[C@]1(n2cnc3c(Sc4cccc(F)c4)ncnc32)CSC[C@H]1O (relative stereo) [28a]
10.8 ± 1.07 µM	CCOC(=O)[C@]1(n2cnc3c(SCCCF)ncnc32)CSC[C@H]1O (relative stereo) [30a]
> 50 µM	CCOC(=O)[C@]1(n2cnc3c(SCCCCl)ncnc32)CSC[C@@H]1O (relative stereo) [31b]
8.83 ± 0.78 µM	CCOC(=O)[C@]1(n2cnc3c(SC)ncnc32)CSC[C@@H]1O (relative stereo) [21b]
15.1 ± 2.08 µM	CCOC(=O)[C@]1(n2cnc3c(Sc4ccc(C(C)(C)C)cc4)ncnc32)CSC[C@@H]1O (relative stereo) [29b]
6.07 ± 0.78 µM	CCCCCSc1ncnc2c1ncn2[C@@]1(C(=O)OCC)CSC[C@H]1O (relative stereo) [26a]
3.27 ± 0.82 µM	CCOC(=O)[C@]1(n2cnc3c(SCC)ncnc32)CSC[C@@H]1O (relative stereo) [22b]
9.89 ± 1.02 µM	CCCCSc1ncnc2c1ncn2[C@@]1(C(=O)OCC)CSC[C@H]1O (relative stereo) [25a]
9.49 ± 1.18 µM	CCCSc1nc(F)nc2c1ncn2[C@]1(C(=O)OCC)CSC[C@H]1O [36bb]
12.1 ± 1.12 µM	CCOC(=O)[C@]1(n2cnc3c(SCCCF)ncnc32)CSC[C@@H]1O (relative stereo) [30b]
23.9 ± 2.38 µM	CCOC(=O)[C@]1(n2cnc3c(SCc4ccccc4)ncnc32)CSC[C@@H]1O (relative stereo) [27b]
31 ± 2.18 µM	CCOC(=O)[C@]1(n2cnc3c(SC)ncnc32)CSC[C@H]1O (relative stereo) [21a]
25.8 ± 1.35 µM	CCOC(=O)[C@]1(n2cnc3c(Sc4cccc(F)c4)ncnc32)CSC[C@@H]1O (relative stereo) [28b]
21.2 ± 2.37 µM	CCOC(=O)[C@]1(n2cnc3c(Sc4ccc(C(C)(C)C)cc4)ncnc32)CSC[C@H]1O (relative stereo) [29a]
> 50 µM	CCOC(=O)[C@]1(n2cnc3c(SCCCCl)ncnc32)CSC[C@H]1O (relative stereo) [31a]

SMILES	IC50
CCOC(=O)[C@]1(n2cnc3c(N4CCCCC4)nc(F)nc32)CSC[C@H]1O [33aa]	6.17 ± 1.01 µM

Same assay, conditions: Table S3, CCK-8, mean ± SD

IC50	SMILES
9.33 ± 1.17 µM	CCOC(=O)C1(n2cnc3c(Cl)nc(F)nc32)CSCC1O (single isomer, unassigned) [39b]
22.5 ± 2.17 µM	CCOC(=O)C1(n2cnc3c(Cl)nc(N)nc32)CSCC1O (single isomer, unassigned) [38b]
8.21 ± 1.25 µM	CCOC(=O)C1(n2cnc3c(Cl)nc(Cl)nc32)CSCC1O (single isomer, unassigned) [40a]
4.45 ± 1.07 µM	CCOC(=O)C1(n2cnc3c(Cl)nc(Cl)nc32)CSCC1O (single isomer, unassigned) [40b]
6.32 ± 1.02 µM	CCOC(=O)C1(n2cnc3c(N4CCOCC4)nc(Cl)nc32)CSCC1O (single isomer, unassigned) [42a]
> 50 µM	CCOC(=O)C1(n2cnc3cnc(Cl)nc32)CSCC1O (stereo not drawn) [41a]
